# Test results taken from ChEMBL document CHEMBL1201862, “PubChem BioAssay data set” (2004).
# The source made the active and inactive calls.
# Assays:
# MDCK = test: antiviral activity against H1N1 influenza, dose response, cell-based, strain KY136 (AID 540257); type: functional; conditions: Canis lupus familiaris
# [1] = molecular target: T1, High affinity choline transporter 1 (Homo sapiens, UniProt Q9GZV3); test: human choline transporter blockers, potency – cell-based, 5-point CRC, membrane potential dye, dose response (AID 504840); type: functional
# T1 sequence (Q9GZV3 whole entry): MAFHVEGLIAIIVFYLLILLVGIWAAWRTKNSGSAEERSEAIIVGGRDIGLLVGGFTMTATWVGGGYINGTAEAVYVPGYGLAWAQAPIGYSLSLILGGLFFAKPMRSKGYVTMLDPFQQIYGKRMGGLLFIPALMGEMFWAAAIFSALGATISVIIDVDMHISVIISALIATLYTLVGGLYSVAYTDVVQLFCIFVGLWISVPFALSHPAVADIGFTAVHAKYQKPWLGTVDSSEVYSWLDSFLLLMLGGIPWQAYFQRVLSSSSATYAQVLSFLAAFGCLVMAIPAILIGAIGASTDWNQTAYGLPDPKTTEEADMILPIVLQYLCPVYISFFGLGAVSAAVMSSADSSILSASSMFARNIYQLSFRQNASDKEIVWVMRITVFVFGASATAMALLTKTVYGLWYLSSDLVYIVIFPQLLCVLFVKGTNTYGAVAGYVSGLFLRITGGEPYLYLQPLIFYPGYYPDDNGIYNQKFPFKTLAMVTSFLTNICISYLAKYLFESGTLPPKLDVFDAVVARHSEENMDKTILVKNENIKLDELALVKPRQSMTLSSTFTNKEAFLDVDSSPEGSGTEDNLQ
# Hexokinase-1 = molecular target: T2, Hexokinase-1 (Homo sapiens, UniProt P19367); test: SAR analysis of small molecule inhibitors of hexokinase domain containing I (HKDC1) in the hexokinase 1 selectivity assay. [Related pubchem assays (depositor defined):AID493160, AID493190]; type: functional
# T2 sequence (P19367 whole entry): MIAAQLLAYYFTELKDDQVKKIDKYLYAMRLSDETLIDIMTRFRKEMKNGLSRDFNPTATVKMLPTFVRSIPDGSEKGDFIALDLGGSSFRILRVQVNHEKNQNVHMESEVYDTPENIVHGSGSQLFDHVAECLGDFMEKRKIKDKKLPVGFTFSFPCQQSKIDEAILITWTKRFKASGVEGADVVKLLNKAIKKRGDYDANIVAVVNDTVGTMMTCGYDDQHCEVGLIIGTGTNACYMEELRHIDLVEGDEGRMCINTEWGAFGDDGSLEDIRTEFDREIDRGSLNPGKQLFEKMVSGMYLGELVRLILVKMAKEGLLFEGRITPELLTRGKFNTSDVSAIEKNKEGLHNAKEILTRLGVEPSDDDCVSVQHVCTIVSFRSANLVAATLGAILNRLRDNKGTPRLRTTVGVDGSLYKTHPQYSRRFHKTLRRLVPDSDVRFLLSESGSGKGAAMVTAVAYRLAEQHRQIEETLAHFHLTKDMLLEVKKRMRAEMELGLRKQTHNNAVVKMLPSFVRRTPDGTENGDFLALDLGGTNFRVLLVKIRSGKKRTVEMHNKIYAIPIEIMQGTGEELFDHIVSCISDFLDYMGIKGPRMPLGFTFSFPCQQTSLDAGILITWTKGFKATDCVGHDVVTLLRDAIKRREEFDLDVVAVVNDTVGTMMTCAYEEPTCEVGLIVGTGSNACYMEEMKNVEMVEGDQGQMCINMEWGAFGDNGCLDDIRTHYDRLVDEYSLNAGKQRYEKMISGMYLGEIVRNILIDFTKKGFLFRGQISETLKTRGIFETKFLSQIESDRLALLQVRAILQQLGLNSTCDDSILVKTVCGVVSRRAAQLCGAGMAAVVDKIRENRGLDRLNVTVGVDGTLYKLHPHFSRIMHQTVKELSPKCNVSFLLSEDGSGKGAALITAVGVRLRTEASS
# [2] = molecular target: FAD-linked sulfhydryl oxidase ALR (Homo sapiens, UniProt P55789); test: ALR-catalysed DTT oxidation blockers – biochemical, H2O2 detection, luminescence, cherry-pick, dose response (AID 493248)
# Chain of FAD-linked sulfhydryl oxidase ALR (P55789 whole entry, the tested form may be a part): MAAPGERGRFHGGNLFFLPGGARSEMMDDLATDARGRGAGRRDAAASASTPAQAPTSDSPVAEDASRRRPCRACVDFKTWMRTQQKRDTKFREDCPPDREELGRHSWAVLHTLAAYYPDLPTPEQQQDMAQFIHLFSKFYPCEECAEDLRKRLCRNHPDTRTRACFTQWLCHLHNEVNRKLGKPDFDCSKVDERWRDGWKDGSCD
# Hexokinase HKDC1 = molecular target: T3, Hexokinase HKDC1 (Homo sapiens, UniProt Q2TB90); test: SAR analysis of small molecule inhibitors of hexokinase domain containing I (HKDC1). [Related pubchem assays (depositor defined):AID493160, AID493190]; type: functional
# T3 sequence (Q2TB90 whole entry): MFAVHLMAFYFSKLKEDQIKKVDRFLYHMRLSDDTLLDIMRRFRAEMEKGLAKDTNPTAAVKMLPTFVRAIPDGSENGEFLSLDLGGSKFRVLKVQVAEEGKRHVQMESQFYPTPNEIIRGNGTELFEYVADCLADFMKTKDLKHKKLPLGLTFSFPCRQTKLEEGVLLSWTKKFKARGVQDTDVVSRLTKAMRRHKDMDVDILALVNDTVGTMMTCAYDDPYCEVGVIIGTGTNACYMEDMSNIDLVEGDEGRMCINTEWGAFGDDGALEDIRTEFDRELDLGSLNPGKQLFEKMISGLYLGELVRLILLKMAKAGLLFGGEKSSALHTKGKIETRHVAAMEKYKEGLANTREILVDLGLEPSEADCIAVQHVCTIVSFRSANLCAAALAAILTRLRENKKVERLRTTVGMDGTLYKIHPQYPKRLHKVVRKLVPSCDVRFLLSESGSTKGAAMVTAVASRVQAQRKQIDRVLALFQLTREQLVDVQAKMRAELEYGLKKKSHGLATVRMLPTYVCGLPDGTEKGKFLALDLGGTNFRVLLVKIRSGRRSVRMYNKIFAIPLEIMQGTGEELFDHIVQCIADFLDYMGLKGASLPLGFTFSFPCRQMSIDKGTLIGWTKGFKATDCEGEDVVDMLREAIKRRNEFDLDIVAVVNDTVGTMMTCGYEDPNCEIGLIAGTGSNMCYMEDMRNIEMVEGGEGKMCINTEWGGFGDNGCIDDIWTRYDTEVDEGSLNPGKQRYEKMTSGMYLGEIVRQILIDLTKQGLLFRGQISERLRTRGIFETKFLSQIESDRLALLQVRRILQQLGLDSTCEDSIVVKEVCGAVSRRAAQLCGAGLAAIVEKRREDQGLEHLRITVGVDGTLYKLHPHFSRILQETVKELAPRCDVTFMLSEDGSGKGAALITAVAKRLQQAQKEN
# [3] = molecular target: Likely tRNA 2'-phosphotransferase (Candida albicans (strain SC5314 / ATCC MYA-2876) (Yeast), UniProt Q5A7N4); test: inhibition of Candida TPT1 enzyme activity – biochemical, fluorescence polarization, dose response (AID 2160)
# Chain of Likely tRNA 2'-phosphotransferase (Q5A7N4 whole entry): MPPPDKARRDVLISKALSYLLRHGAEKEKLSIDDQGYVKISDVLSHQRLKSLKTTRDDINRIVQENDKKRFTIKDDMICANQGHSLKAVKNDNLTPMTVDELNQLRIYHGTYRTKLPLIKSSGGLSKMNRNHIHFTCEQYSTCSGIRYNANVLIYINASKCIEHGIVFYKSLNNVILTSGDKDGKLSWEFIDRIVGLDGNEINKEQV
# [4] = molecular target: Guanyl-specific ribonuclease T1 (Aspergillus oryzae (strain ATCC 42149 / RIB 40), UniProt P00651); test: inhibition of ribonuclease T1 activity – biochemical, fluorescence polarization, 1536-well, counter-screen for TPT1 inhibitor project, dose response (AID 2167)
# Chain of Guanyl-specific ribonuclease T1 (P00651 whole entry): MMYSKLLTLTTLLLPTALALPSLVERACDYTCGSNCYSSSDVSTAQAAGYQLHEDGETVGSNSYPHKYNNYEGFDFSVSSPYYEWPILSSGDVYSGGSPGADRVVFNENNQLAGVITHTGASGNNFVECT
# [5] = molecular target: Beta-adrenergic receptor kinase 1 (Homo sapiens, UniProt P25098); test: aptamer displacement from bead-bound GRK2 – biochemical, cherry pick 1, bead flow cytometry, dose response (AID 504500)
# Chain of Beta-adrenergic receptor kinase 1 (P25098 whole entry): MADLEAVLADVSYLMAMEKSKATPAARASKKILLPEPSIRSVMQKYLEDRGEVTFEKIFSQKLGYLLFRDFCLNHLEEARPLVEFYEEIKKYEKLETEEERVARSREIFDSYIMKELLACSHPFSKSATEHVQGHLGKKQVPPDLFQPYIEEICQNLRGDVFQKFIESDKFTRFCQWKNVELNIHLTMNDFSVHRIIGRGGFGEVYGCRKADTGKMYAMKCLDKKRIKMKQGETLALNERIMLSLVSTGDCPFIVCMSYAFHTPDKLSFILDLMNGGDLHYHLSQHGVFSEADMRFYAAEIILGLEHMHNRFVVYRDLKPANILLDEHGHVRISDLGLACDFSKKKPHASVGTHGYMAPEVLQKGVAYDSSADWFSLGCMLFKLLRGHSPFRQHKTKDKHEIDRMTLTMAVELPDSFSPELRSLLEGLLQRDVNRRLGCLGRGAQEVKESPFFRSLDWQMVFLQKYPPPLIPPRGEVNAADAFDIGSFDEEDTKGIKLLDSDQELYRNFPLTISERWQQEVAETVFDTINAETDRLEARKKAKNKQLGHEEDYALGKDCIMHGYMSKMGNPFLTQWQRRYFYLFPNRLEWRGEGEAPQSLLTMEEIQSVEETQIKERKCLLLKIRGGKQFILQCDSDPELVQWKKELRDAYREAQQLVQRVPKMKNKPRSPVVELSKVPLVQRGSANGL
# [6] = molecular target: Beta-2 adrenergic receptor (Homo sapiens, UniProt P07550); test: ADRB2 activation measured by internalization – cell-based, FAP fluorogen, flow cytometry, cherry pick 1, dose response (AID 588763); type: functional
# Chain of Beta-2 adrenergic receptor (P07550 whole entry): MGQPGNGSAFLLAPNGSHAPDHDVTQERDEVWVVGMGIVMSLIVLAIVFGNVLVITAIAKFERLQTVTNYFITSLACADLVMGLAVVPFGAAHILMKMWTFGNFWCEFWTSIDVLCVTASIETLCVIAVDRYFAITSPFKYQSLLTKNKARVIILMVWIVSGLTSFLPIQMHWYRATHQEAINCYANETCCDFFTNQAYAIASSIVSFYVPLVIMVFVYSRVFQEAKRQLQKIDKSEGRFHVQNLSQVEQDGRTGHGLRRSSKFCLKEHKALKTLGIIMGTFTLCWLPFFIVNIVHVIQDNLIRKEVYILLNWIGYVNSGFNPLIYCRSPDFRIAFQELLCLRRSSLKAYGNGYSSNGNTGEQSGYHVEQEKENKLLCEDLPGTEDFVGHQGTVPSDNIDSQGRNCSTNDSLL
# [7] = molecular target: Luciferin 4-monooxygenase (Photuris pensylvanica, UniProt Q27757); test: inhibition of Cell Titer Glo luciferase signal – biochemical, luminescence, cherry-picks, counter-screen for HSF-1 reporter inhibitor project, dose response (AID 588847)
# Chain of Luciferin 4-monooxygenase (Q27757 whole entry): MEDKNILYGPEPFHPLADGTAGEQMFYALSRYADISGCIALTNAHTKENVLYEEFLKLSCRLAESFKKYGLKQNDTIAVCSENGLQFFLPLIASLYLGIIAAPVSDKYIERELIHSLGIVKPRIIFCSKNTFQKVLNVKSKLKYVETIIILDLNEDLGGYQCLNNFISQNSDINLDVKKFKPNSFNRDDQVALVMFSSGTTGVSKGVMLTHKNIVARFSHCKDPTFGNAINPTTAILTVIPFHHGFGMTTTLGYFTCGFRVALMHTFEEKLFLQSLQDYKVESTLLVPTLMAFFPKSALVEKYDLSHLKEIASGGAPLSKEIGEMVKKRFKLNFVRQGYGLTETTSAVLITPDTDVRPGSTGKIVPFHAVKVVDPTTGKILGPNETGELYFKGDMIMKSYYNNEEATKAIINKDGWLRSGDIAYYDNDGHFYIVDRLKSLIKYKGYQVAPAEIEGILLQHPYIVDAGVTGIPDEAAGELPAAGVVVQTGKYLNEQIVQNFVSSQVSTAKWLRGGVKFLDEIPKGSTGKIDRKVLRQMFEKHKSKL
# [8] = molecular target: T4, Heat shock factor protein 1 (Mus musculus, UniProt P38532); test: decrease of HSF1-responsive luciferase luminescence – cell-based, NIH3T3, dose retest, confirmation (AID 2382); type: functional;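 also: NIH3T3 fibroblasts with HSF1-driven luciferase reporter stressed by proteasome inhibitor MG132; luminescence from HSF1-driven luciferase expression after 8 hours of MG132 stress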
# T4 sequence (P38532 whole entry): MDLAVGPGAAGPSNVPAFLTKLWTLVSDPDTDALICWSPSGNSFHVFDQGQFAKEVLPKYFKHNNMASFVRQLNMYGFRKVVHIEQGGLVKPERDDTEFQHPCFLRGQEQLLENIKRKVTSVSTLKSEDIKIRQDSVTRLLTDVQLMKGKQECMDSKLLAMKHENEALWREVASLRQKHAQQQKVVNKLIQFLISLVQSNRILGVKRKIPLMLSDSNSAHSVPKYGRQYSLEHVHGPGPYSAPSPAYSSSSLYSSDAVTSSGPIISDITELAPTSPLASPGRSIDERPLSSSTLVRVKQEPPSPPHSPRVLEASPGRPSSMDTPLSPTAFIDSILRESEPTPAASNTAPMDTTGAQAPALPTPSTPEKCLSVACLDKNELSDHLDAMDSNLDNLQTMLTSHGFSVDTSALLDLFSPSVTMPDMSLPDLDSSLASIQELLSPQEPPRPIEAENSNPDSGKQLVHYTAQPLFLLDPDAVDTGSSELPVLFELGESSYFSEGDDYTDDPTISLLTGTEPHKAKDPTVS
structure (smiles),measurement,setting,value
O=S(=O)(Cc1cc(Cl)nc(-c2cccnc2)n1)c1ccccc1,IC50,MDCK,> 100 µM (active)
same,IC50,[1],10.5 µM (active)
N#Cc1ccc(CSc2nnc(NC(=O)c3ccc(O)nc3)s2)cc1,IC50,Hexokinase-1,> 80 µM (inactive)
same,AC50,[2],679 nM (active)
same,IC50,Hexokinase HKDC1,> 80 µM (inactive)
NC(=O)c1cc[n+](CC2=C(C(=O)O)N3C(=O)[C@@H](NC(=O)[C@@H](c4ccccc4)S(=O)(=O)[O-])[C@H]3SC2)cc1 [CEFSULODIN SODIUM],IC50,[3],1.69 µM (active)
same,IC50,[4],> 55.7 µM (not active)
same,EC50,[5],70 nM (active)
CCCCN(CCCC)c1nc(OC)nc(-n2nnc(C(C)=O)c2C)n1,EC50,[6],12.1 µM (inactive)
CC(C)(C)c1ccc(/C=N/Nc2cccc(C(=O)O)c2)cc1,AC50,[7],3.37 µM (active)
same,EC50,[8],< 160 nM (active)
